Reference: patent US6660494B2 (priority 2000, dated 2003)
“Also recorded” adds a separate entry of the source. Like-named read-outs stand apart in the source and are kept apart here.

Legend:
[1] = target: PC-PLC of Clostridium perfringens (Clostridium perfringens, UniProt P0C216); type: biochemical
[2] = stability on storage, in buffer solutions and in plating media; type: physicochemical; conditions: for stability in conventional buffer solutions: citrate/hydrochloric acid, Hepes/NaOH, Tris/HCl, boric acid/potassium chloride-sodium hydroxide, pH about 4 to about 10, ambient temperature; for stability in conventional plating media: e.g. Tryptic Soy Agar; for storage stability: temperatures below about 5° C., protected from light
[3] = target: PC-PLC from Clostridium perfringens (Clostridium perfringens, UniProt P0C216); type: biochemical
Chain of PC-PLC from Clostridium perfringens (P0C216 29-398 limits assumed): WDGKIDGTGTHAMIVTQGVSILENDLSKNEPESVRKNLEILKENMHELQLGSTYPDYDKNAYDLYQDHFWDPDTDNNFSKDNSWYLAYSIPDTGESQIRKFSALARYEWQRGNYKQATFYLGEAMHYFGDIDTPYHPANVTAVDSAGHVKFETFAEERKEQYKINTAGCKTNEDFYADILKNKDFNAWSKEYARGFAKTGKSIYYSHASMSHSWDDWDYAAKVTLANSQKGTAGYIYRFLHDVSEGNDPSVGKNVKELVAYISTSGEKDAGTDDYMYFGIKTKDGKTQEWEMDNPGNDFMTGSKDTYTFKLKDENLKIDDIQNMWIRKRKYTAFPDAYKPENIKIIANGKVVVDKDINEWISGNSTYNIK

solubility in water = type: physicochemical

Chain of PC-PLC of Clostridium perfringens (P0C216 29-398 limits assumed): as above

Structure (SMILES): C[N+](C)(C)CCOP(=O)([O-])Oc1c[nH]c2ccc(Br)c(Cl)c12 [X-CP, 5-bromo-4-chloro-3-indoxyl choline phosphate]
- additional effect on cleavage rate when these detergents/surfactants are combined with BSA [1]: no additional enhancement
- effect of detergent/surfactant additive on cleavage rate of the enzyme [1]: slight enhancement
- color of the solution ([1]; pH 7): Bluish; also recorded: Colorless; also recorded: Pale blue; also recorded: Light blue; also recorded: Colorless*
- stability in conventional buffer solutions [2]: at least ten days
- stability in conventional plating media [2]: stable
- storage stability [2]: stable during extended periods of time
- Vmax [3]: 93.6 nMol min^−1 (μg enzyme)^−1 and ≈ 94 μMol min^−1 (mg enzyme)^−1
- Vmax (rate of cleavage under saturating conditions) [3]: 312 nmol/min
- cleavage at 60° C. versus ambient temperature, times faster [3]: approximately 160
- factor of increase of enzymatic activity for every 10° C. of rise in temperature [3]: 3-4
- Rate ([3]; 22° C.): 0.65 nmol/min
- Specific Activity ([3]; 22° C.): 0.1 µmol/min/mg
- Rate ([3]; 41° C.): 8.1 nmol/min
- Specific Activity ([3]; 41° C.): 1.2 µmol/min/mg
- Rate ([3]; 46° C.): 19.7 nmol/min
- Specific Activity ([3]; 46° C.): 3.0 µmol/min/mg
- Rate ([3]; 51° C.): 25.8 nmol/min
- Specific Activity ([3]; 51° C.): 3.9 µmol/min/mg
- Rate ([3]; 55° C.): 48.5 nmol/min
- Specific Activity ([3]; 55° C.): 7.3 µmol/min/mg
- Rate ([3]; 60° C.): 106.8 nmol/min
- Specific Activity ([3]; 60° C.): 16.0 µmol/min/mg
- Km ([3]; read-out: Km (Michaelis-Menten constant)): ~42 mM
- solubility in water (solubility in water): freely soluble in water

Structure (SMILES): C[N+](C)(C)CCOP(=O)([O-])Oc1c[nH]c2ccccc12 [Y-CP, 3-indoxylcholine phosphate]
- stability in conventional buffer solutions [2]: at least ten days
- stability in conventional plating media [2]: stable
- storage stability [2]: stable during extended periods of time
- solubility in water (solubility in water): freely soluble in water
